Laboratory results from patent US11104674B2 (Hoffmann-La Roche Inc., priority 2016, dated 2021).

How the values were obtained:
HBV DNA = HBV DNA assay (real-time qPCR of extracellular HBV DNA); format: cell-based; conditions: Hepatitis B virus, 144 h; Anti HBV DNA production activity in HepG2.2.15 cells; supernatant collected six days after treatment
Description: HepG2.2.15 cells (Acs et al. Proc Natl Acad Sci USA, 84, (1987), 4641-4), a constitutively HBV-expressing cell line were cultured in DMEM+Glutamax-I medium (Invitrogen, Carlsbad, Calif., USA), supplemented with 10% fetal bovine serum (Invitrogen) and G418 (Invitrogen) at a final concentration of 200 mg/L and maintained in 5% CO2 at 37° C.
The assay employs real-time qPCR (TaqMan) to directly measure extracellular HBV DNA copy number in the cell supernatant. HepG2.2.15 cells were plated in 96-well microtiter plates before treatment with complete medium (DMEM, Glutamax, 10% FBS, 1% Penicillin/Streptomycin, 250 μg/mL Genetycin, final DMSO concentration is 1%/o). Only the interior wells were utilized to reduce “edge effects” observed during cell culture, the exterior wells were filled with complete medium to help minimize sample evaporation. The HepG2.2.15 cells were treated 1 h later with various concentrations of a test compound in duplicate (top concentration used at 5 μM, 2 μM or 0.5 μM according to the HBsAg IC50 observed, with ⅓ successive dilutions (total of 10 dilutions). Six days following the initial administration of the test compound, the cell culture supernatant was collected; DNA extraction was performed by automated system (Magnapure) and then used in a real-time qPCR/TaqMan assay to determine HBV DNA copy numbers. Antiviral activity was calculated from the reduction in HBV DNA levels (IC50).
The compounds of the present invention were tested for their capacity to inhibit HBV DNA as described herein.

HBsAg = HBsAg assay (chemiluminescence immunoassay of secreted HBsAg); format: cell-based, HBV; conditions: HepG2.2.15 cells, CLIA of culture supernatant
Summary of the method: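 HepG2.2.15 cells, in duplicate, treated with three-fold serial compound dilutions (1% DMSO final); secreted HBsAg in supernatant quantified by chemiluminescence immunoassay; IC50 is the concentration reducing HBsAg secretion by 50% versus the DMSO control.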

[1] = Hepatitis B virus, HepG2.2.15, HBsAg secretion

Compound	IC50 (HBV DNA) [nM]	IC50 (HBsAg; [1]) [nM]	IC50 (HBsAg; HBsAg secretion) [nM]
COC1CN(c2cc(F)nc(N3CCc4nc(-c5ncccn5)ncc4C3C)c2)C1 (centres unmarked) [Example 112, 6-[6-fluoro-4-(3-methoxyazetidin-1-yl)-2-pyridyl]-5-methyl-2-pyrimidin-2-yl-7,8-dihydro-5H-pyrido[4,3-d]pyrimidine]	0.6	6	
COC1CCN(c2cc(F)nc(N3CCc4nc(-c5ncccn5)ncc4C3C)c2)C1 (centres unmarked) [Example 20, 6-[6-fluoro-4-(3-methoxypyrrolidin-1-yl)-2-pyridyl]-5-methyl-2-pyrimidin-2-yl-7,8-dihydro-5H-pyrido[4,3-d]pyrimidine]	0.15	10	
C[C@@H]1c2cnc(-c3ncccn3)nc2CCN1c1cc(N2CCN(S(C)(=O)=O)CC2)cc(F)n1 [Example 97, (−)-6-[6-Fluoro-4-(4-methylsulfonylpiperazin-1-yl)-2-pyridyl]-5-methyl-2-pyrimidin-2-yl-7,8-dihydro-5H-pyrido[4,3-d]pyrimidine]	1.9		3
CCS(=O)(=O)N1CCN(c2cc(F)nc(N3CCc4nc(-c5ncccn5)ncc4C3C)c2)CC1 (centres unmarked) [Example 90, 6-[4-(4-ethylsulfonylpiperazin-1-yl)-6-fluoro-2-pyridyl]-5-methyl-2-pyrimidin-2-yl-7,8-dihydro-5H-pyrido[4,3-d]pyrimidine]	1.1	5	
CC1c2cnc(-c3ncccn3)nc2CCN1c1cc(N2CCCS2(=O)=O)cc(F)n1 (centres unmarked) [Example 115, 2-[2-Fluoro-6-(5-methyl-2-pyrimidin-2-yl-7,8-dihydro-5H-pyrido[4,3-d]pyrimidin-6-yl)-4-pyridyl]-1,2-thiazolidine1,1-dioxide]	3.2	4	
CC1c2cnc(-c3ncccn3)nc2CCN1c1cc(N2CC(F)C2)cc(F)n1 (centres unmarked) [Example 123, 6-[6-fluoro-4-(3-fluoroazetidin-1-yl)-2-pyridyl]-5-methyl-2-pyrimidin-2-yl-7,8-dihydro-5H-pyrido[4,3-d]pyrimidine]	0.43	12	
CC1c2cnc(-c3ccccn3)nc2CCN1c1cc(N2CCC(C(N)=O)C2)cc(F)n1 (centres unmarked) [Example 62, 1-[2-fluoro-6-[5-methyl-2-(2-pyridyl)-7,8-dihydro-5H-pyrido[4,3-d]pyrimidin-6-yl]-4-pyridyl]pyrrolidine-3-carboxamide]		35	
CC1c2cnc(-c3ncccn3)nc2CCN1c1cc(F)cc(N2CC3(COC3)C2)n1 (centres unmarked) [Example 129, 6-[4-fluoro-6-(5-methyl-2-pyrimidin-2-yl-7,8-dihydro-5H-pyrido[4,3-d]pyrimidin-6-yl)-2-pyridyl]-2-oxa-6-azaspiro[3.3]heptane]		36	
CC1c2cnc(-c3ncccn3)nc2CCN1c1cc(F)cc(N2CCOC(CO)C2)n1 (centres unmarked) [Example 25, [4-[4-fluoro-6-(5-methyl-2-pyrimidin-2-yl-7,8-dihydro-5H-pyrido[4,3-d]pyrimidin-6-yl)-2-pyridyl]morpholin-2-yl]methanol]		46	
CC1c2cnc(-c3ncccn3)nc2CCN1c1cc(N2CCN(CCC(N)=O)CC2)cc(F)n1 (centres unmarked) [Example 104, 3-[4-[2-fluoro-6-(5-methyl-2-pyrimidin-2-yl-7,8-dihydro-5H-pyrido[4,3-d]pyrimidin-6-yl)-4-pyridyl]piperazin-1-yl]propanamide]		220	
CC1c2cnc(-c3ncccn3)nc2CCN1c1cc(F)cc(N2CCC(O)C2)n1 (centres unmarked) [Example 37, 1-[4-fluoro-6-(5-methyl-2-pyrimidin-2-yl-7,8-dihydro-5H-pyrido[4,3-d]pyrimidin-6-yl)-2-pyridyl]pyrrolidin-3-ol]		11	
CC1c2cnc(-c3ncccn3)nc2CCN1c1cc(N2CCC2)cc(F)n1 (centres unmarked) [Example 110, 6-[4-(azetidin-1-yl)-6-fluoro-2-pyridyl]-5-methyl-2-pyrimidin-2-yl-7,8-dihydro-5H-pyrido[4,3-d]pyrimidine]		8	
COC1CCN(c2cc(F)cc(N3CCc4nc(-c5ncccn5)ncc4C3C)n2)C1 (centres unmarked) [Example 21, 6-[4-fluoro-6-(3-methoxypyrrolidin-1-yl)-2-pyridyl]-5-methyl-2-pyrimidin-2-yl-7,8-dihydro-5H-pyrido[4,3-d]pyrimidine]		13	
CC1c2cnc(-c3ncccn3)nc2CCN1c1cc(N2CCOC(CC(=O)O)C2)cc(F)n1 (centres unmarked) [Example 28, 2-[4-[2-fluoro-6-(5-methyl-2-pyrimidin-2-yl-7,8-dihydro-5H-pyrido[4,3-d]pyrimidin-6-yl)-4-pyridyl]morpholin-2-yl]acetic acid]		1820	
CC1c2cnc(-c3ncccn3)nc2CCN1c1cc(F)nc(N2CC(F)C2)c1 (centres unmarked) [Example 150, 6-[2-Fluoro-6-(3-fluoroazetidin-1-yl)-4-pyridyl]-5-methyl-2-pyrimidin-2-yl-7,8-dihydro-5H-pyrido[4,3-d]pyrimidine]		20	
CC1c2cnc(-c3ccccn3)nc2CCN1c1cc(F)cc(NCC(F)F)n1 (centres unmarked) [Example 80, N-(2,2-difluoroethyl)-4-fluoro-6-[5-methyl-2-(2-pyridyl)-7,8-dihydro-5H-pyrido[4,3-d]pyrimidin-6-yl]pyridin-2-amine]		124	
CC(=O)N1CCN(c2cc(F)cc(N3CCc4nc(-c5ccccn5)ncc4C3C)n2)CC1 (centres unmarked) [Example 70, 1-[4-[4-fluoro-6-[5-methyl-2-(2-pyridyl)-7,8-dihydro-5H-pyrido[4,3-d]pyrimidin-6-yl]-2-pyridyl]piperazin-1-yl]ethanone]		16	
